Converted amounts (≈) assume the structure as drawn.
Tests used:
[1] = test system: Platelet aggregation; experiment: Platelet aggregation inhibiting activity in vitro (ADP-induced, rabbit platelet-rich plasma); assay type: cell-based, rabbits (Japanese native white male); settings: Oryctolagus cuniculus, rabbit PRP, ADP 10 μM, 37° C., minimum concentration at which inhibition exceeds 50%, read-out: Platelet aggregation inhibitory activity (IC50)
Description: The platelet aggregation inhibiting activity in vitro of each of the text compounds was assayed by using rabbits. Japanese native white male rabbits having a body weight of 2.5 to 3.5 kg were used. Blood was taken from the ear vein of the animals maintaining the 3.8% trisodium citrate/blood ratio at 1:9. The blood was centrifuged at 1,000 rpm for 10 minutes, and the upper layer was separated as PRP (platelet-rich plasma). The lower layer was further centrifuged at 2,800 rpm for 10 minutes. It separated into two layers. The upper layer was separated as PPP (platelet-poor plasma). The number of platelets was adjusted to 6×10^5 /microliter by dilution with PPP. Each of the test compounds was added in an amount of 25 microliters to 250 microliters of PRP after adjustment, and the mixture was subjected to preincubation at 37° C. for 2 minutes. Then ADP was added so that its final concentration was 10 μM, and variations in transmittance were recorded by using an agrigometer. The test compound was used after it was dissolved in ethanol to a concentration of 10 mg/ml and then serially diluted with phosphate buffer (pH 7.4). The percent inhibition of aggregation was calculated in accordance with the following equation. [formula] where
To is the transmittance of the system to which the test compound was not added, and
T is the transmittance of the system to which the test compound was added.
The minimum concentration of the compound at which the percent inhibition exceeds 50% is shown as IC50.

[2] = test system: liver cell necrosis induced by carbon tetrachloride; experiment: Effect (in vivo) on liver cell necrosis induced by carbon tetrachloride; inhibition of plasma GPT activity increase; design: species or system SD-strain male rats; settings: five administrations, 24 hours after CCl4 s.c., rat
Description: Effect (in vivo) on liver cell necrosis induced by carbon tetrachloride
Carbon tetrachloride and each of the test compounds were administered to SD-strain male rats (6 weeks old, body weight 170 to 200 g) by the following procedure. Blood was taken from the animals, and glutamic acid-pyruvic acid transferase (GPT) activity as an index of liver injury was measured by the ultraviolet absorbance measuring method (rate-optimum standard method), and the effect of the test compound was evaluated.
The rats were used in groups each consisting of 8 to 36 rats. The test compound was used as an aqueous 0.5% Tween 80-2.5% ethanol solution. […] The test compound was administered five times in total, i.e. 30 minutes before administration of carbon tetrachloride and 1, 2, 8 and 18 hours after administration of carbon tetrachloride. The carbon tetrachloride was subcutaneously administered as a 50% olive oil solution at a rate of […] of body weight (6670 mg/kg body weight as carbon tetrachloride). Before administration of carbon tetrachloride, the animals had been caused to abstain from food for about 18 hours.
Twenty-four hours after the administration of carbon tetrachloride, the rats were anesthetized with ether. Blood was drawn from the abdominal artery of the animals, and left to stand at room temperature for 1 hour and then centrifuged at 3,000 rpm for 15 minutes. The supernatant was used as a serum sample, and the GPT activity was measured.
The percent inhibition of the test compound on the increase of the plasma GPT activity increase by CCl4 was calculated in accordance with the following equation. [formula]

Structure (SMILES)	IC50 [1] [µg/mL]	Percent inhibition of the plasma GPT activity ([2]; 0.3 mg/kg p.o.) [%]	Percent inhibition of the plasma GPT activity ([2]; 1.0 mg/kg p.o.) [%]	Percent inhibition of the plasma GPT activity ([2]; 3.0 mg/kg p.o.) [%]
CCCCC(C)(O)C/C=C/[C@@H]1[C@H]2CC(CCCCC(=O)O)=C[C@H]2C[C@H]1O (stereo partly shown) [15-Deoxy-16-hydroxy-16-methylisocarbacyclin]	0.37 (≈ 1.02 µM)			
CCCC[C@H](C)C[C@H](O)/C=C/[C@@H]1[C@H]2CC(CCCCC(=O)N[C@@H](CC(C)C)C(=O)O)=C[C@H]2C[C@H]1O [17(S),20-Dimethylisocarbacyclin L-leucine amide]	> 1000	33		
CCCC[C@H](C)C[C@H](O)/C=C/[C@@H]1[C@H]2CC(CCCCC(=O)OCC(=O)O)=C[C@H]2C[C@H]1O [17(S),20-dimethylisocarbacyclin carboxymethyl ester]	407 (≈ 932 µM)		44	39
CCCCC[C@H](O)/C=C/[C@@H]1[C@H]2C/C(=C/CCCC(=O)O)O[C@H]2C[C@H]1O [Prostaglandin I2, reference compound]	0.004 (≈ 0.0113 µM)			

— patent US5175338A, “Isocarbacyclin derivatives and their pharmaceutically acceptable salts thereof” (Teijin Limited, priority 1986, dated 1992)
